A short description of data set [1]: Beagle PK evaluation experiment. The data set is classed as in vivo. Conditions: dog, plasma; for AUC(0-t) / clearance / Vd / half-life / Tmax: dose 1 mg/kg; for clearance: n=3, read-out: Cl_obs iv (clearance rate) (converted); for Vd: n=3, read-out: Vz_obs iv (apparent volume of distribution); for bioavailability: iv/po dose 1/1 mg/kg, n=3, read-out: F % (absolute bioavailability); for Tmax: n=3, median, read-out: Tmax po (time to maximum plasma concentration). On the procedure: Test samples: the compounds of the present invention, prepared according to exemplary methods.
Administration and Sample Collection:
Experimental compounds 11, 12 and 35 were each dissolved in a mixture of 5% DMSO+20% (30% Solutol)+75% saline to prepare solutions. The compound solutions were administrated via intragastric gavage to beagles at a dose of 1.0 mg/kg, respectively. The blood was collected at time points of 0 min, 15 min, 30 min, 1 h, 2 h, 4 h, 6 h, 8 h, 10 h and 24 h.
Experimental compounds 11, 12 and 35 were each dissolved in a mixture of 5% DMSO+20% (30% Solutol)+75% saline to prepare solutions. The compound solutions were intravenously injected into beagles at a dose of 1.0 mg/kg, respectively. The blood was collected at time points of 0 min, 5 min, 15 min, 30 min, 1 h, 2 h, 4 h, 6 h, 8 h, 10 h and 24 h. […]
Experimental compound 17 and compound 37 were each dissolved in a mixture of 5% DMSO+20% PEG400+75% (20% Captisol in Water) to prepare solutions. The compound solutions were intravenously injected into beagles at a dose of 1.0 mg/kg, respectively. The blood was collected at time points of 0 min, 5 min, 15 min, 30 min, 1 h, 2 h, 4 h, 6 h, 8 h, 10 h and 24 h. […]
Experimental compound 18 was dissolved in a mixture of 5% DMA+30% PEG400+65% (20% Captisol in Saline) to prepare a solution. The compound solution was intravenously injected into a beagle at a dose of 1.0 mg/kg. The blood was collected at time points of 0 min, 5 min, 15 min, 30 min, 1 h, 2 h, 4 h, 6 h, 8 h, 10 h and 24 h.
About 1 mL of blood was collected via the upper extremity, and the collected blood was placed in an anticoagulation tube containing EDTA-K2. The blood samples were centrifuged at 1800 g for 5 min at 4° C. to give plasma samples which were prepared within 30 min after blood collection. The plasma samples were stored in a refrigerator at −80° C. before test.
The samples to be tested were taken out from the refrigerator at −80° C., and vortexed for 5 min after naturally thawed at room temperature. 20 μL of plasma samples were each pipetted into a 1.5 mL centrifuge tube, and 200 μL of internal standard working solution (a solution of tolbutamide in methanol) at 100 ng/mL was added. The resulting mixture was mixed well, vortexed for 5 min, and then centrifuged at 12,000 rpm for 5 min. 50 μL of the supernatant was pipetted into a 96-well plate with 150 μL of water per well, and the plate was vortexed for 5 min and mixed well before LC-MS/MS analysis.
The concentrations of test samples were calculated by Analyst 1.6.3 from AB Sciex. Parameters such as mean, standard deviation and coefficient of variation (excluding those output directly by Analyst 1.6.3) were calculated by Microsoft Excel. PK parameters were calculated by Pharsight Phoenix 6.1 software NCA (Tmax was in median).

The target in another data set is T1, Axl (h) (Homo sapiens, UniProt P30530).
T1 construct: purchased
T1 sequence (P30530 26-894): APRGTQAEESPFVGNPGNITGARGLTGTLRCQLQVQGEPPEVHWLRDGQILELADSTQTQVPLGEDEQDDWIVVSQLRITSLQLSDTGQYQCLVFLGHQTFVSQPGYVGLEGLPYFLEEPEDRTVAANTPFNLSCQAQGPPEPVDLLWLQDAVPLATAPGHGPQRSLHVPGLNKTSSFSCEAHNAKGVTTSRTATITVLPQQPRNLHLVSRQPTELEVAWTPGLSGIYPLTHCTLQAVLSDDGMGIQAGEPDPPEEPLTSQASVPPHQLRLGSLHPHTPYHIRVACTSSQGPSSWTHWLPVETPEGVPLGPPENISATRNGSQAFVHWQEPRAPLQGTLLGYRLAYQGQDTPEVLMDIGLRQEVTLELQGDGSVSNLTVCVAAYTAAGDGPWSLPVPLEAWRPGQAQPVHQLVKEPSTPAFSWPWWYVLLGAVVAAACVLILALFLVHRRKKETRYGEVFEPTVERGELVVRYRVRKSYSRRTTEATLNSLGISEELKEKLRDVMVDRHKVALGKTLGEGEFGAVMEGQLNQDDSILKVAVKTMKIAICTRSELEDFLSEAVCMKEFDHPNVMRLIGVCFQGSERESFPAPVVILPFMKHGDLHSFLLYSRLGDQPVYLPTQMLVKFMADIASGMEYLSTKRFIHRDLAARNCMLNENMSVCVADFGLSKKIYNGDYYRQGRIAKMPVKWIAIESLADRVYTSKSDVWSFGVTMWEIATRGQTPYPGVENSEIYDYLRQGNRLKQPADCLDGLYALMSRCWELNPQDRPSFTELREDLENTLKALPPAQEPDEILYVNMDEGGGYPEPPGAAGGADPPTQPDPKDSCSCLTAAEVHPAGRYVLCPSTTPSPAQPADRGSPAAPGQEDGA
Description: Enzymatic activity assay, Axl (h) kinase, [γ-33P]-ATP. The data set is classed as biochemical. Conditions: 10 μM [γ-33P]-ATP, 40 min, room temperature; read-out: Inhibitory Activity on Ax1 (h), IC50. As to the method:
Test samples: the compounds of the present invention, having structures and preparation methods shown above.
(1) Preparation of Compound Stock Solutions
Compounds were each dissolved in 100% DMSO to prepare stock solutions with a maximum concentration of 500 μM.
(2) Preparation of Compound Working Solutions
The compound stock solutions were diluted to final concentrations of 500 μM, 150 μM, 50 μM, 15 μM, 5 μM, 1.5 μM, 0.5 μM, 0.15 μM and 0.05 μM to prepare compound working solutions (50×).
(3) Preparation of different enzymatic reaction solutions
Axl (h) enzyme was dissolved in a mixture of 8 mM MOPS (pH 7.0), 0.2 mM EDTA and 250 μM KKSRGDYMTMQIG to prepare an enzyme solution with a final concentration of 1.7 nM. An Mg/ATP mixture of 10 mM magnesium acetate and 10 μM [γ-^33P]-ATP was used to activate the enzymatic reaction.
The compound working solutions were added to a 384-well plate, with final concentrations of 10000 nM, 3000 nM, 1000 nM, 300 nM, 100 nM, 30 nM, 10 nM, 3 nM and 1 nM, respectively, and then different enzymatic reaction solutions prepared according to the above conditions were added. The reaction solutions were incubated at room temperature for 40 min, and then 0.5% phosphoric acid solutions were added to terminate the reaction. 10 μL of the reaction solution was added dropwise to P30 filter paper which was washed 4 times with a 0.425% phosphoric acid solution and once with methanol and then placed in a scintillation counter for detection. Gray analysis was performed on the results with Image J software, and IC50 values were calculated with GraphPad 5.0 software.

The mark [2] stands for this setting: iv, n=3, read-out: AUClast iv (area under concentration-time curve for 0-24 h).
Where [3] appears, read: iv, n=3, read-out: tz1/2 iv (terminal half-life) (converted).
[4] abbreviates: po (gavage), n=3, read-out: AUClast po (area under concentration-time curve for 0-24 h).
The mark [5] stands for this setting: po (gavage), n=3, read-out: tz1/2 po (terminal half-life) (converted).

Data on nine compounds can be found in US20220298146A1, “HETEROCYCLIC DERIVATIVE AND USE THEREOF” (Transthera Sciences (Nanjing), Inc., priority 2019, published 2022).

Where two headings read alike, the source gives them in different places.

As usually defined, the clearance is the volume of plasma or blood freed of the substance per unit of time. Broadly, the IC50 is the concentration at which inhibition is half-maximal. Take `CC(C)n1cc(-c2ccc(F)cc2)c(=O)c(C(=O)Nc2ccc(Oc3ccnc(N)c3Cl)cn2)n1` [Compound 11, N-(5-((2-amino-3-chloropyridin-4-yl)oxy)pyridin-2-yl)-5-(4-fluorophenyl)-1-isopropyl-4-oxo-1,4-dihydropyridazine-3-carboxamide]: the results for the AUC(0-t) in data set [1] (setting [2]) and in data set [1] (setting [4]) were 3320 ng·h/mL and 1360 ng·h/mL, respectively. The clearance in data set [1] (iv) was 4.33 mL/min/kg. In addition, the Vd in data set [1] (iv) was 5.36 L/kg. In addition, the half-life was 15 h in data set [1] (setting [3]) and 5.97 h in data set [1] (setting [5]). In addition, the bioavailability in data set [1] turned out to be 37.3%. In addition, the Tmax in data set [1] (po (gavage)) is 1 h. Further, the IC50 on Axl (h) came to 6 nM.
As for `CC(C)n1cc(-c2ccc(F)cc2)c(=O)c(C(=O)Nc2ncc(Oc3ccnc(N)c3Cl)cn2)n1` [Compound 12, N-(5-((2-amino-3-chloropyridin-4-yl)oxy)pyrimidin-2-yl)-5-(4-fluorophenyl)-1-isopropyl-4-oxo-1,4-dihydropyridazine-3-carboxamide], the AUC(0-t) came out at 1530 ng·h/mL in data set [1] (setting [2]) and 1190 ng·h/mL in data set [1] (setting [4]). For the same compound, the clearance in data set [1] (iv) was 10.8 mL/min/kg. Also, in data set [1] (iv), the Vd turned out to be 1.04 L/kg. The half-life was 1.1 h in data set [1] (setting [3]) and 1.24 h in data set [1] (setting [5]). Also, the bioavailability in data set [1] turned out to be 78%. Further, in data set [1] (po (gavage)), the Tmax amounted to 0.5 h. Also, on Axl (h), the IC50 amounted to 23 nM.
For `CC(C)n1cc(-c2ccc(F)cc2)c(=O)c(C(=O)Nc2ccc(Oc3ccnc(N)c3Cl)nc2)n1` [Compound 13, N-(6-((2-amino-3-chloropyridin-4-yl)oxy)pyridin-3-yl)-5-(4-fluorophenyl)-1-isopropyl-4-oxo-1,4-dihydropyridazine-3-carboxamide], the IC50 at Axl (h) was found to be 9 nM.
Turning to `Nc1nccc(Oc2ccc(NC(=O)c3nn(C4CC4)cc(-c4ccc(F)cc4)c3=O)nc2)c1Cl` [Compound 17, N-(5-((2-amino-3-chloropyridin-4-yl)oxy)pyridin-2-yl)-1-cyclopropyl-5-(4-fluorophenyl)-4-oxo-1,4-dihydropyridazine-3-carboxamide], the AUC(0-t) amounted to 3360 ng·h/mL in data set [1] (setting [2]) and 3670 ng·h/mL in data set [1] (setting [4]). Moreover, the clearance in data set [1] (iv) is 5 mL/min/kg. Besides, the Vd in data set [1] (iv) turned out to be 3.16 L/kg. The figures for the half-life in data set [1] (setting [3]) and in data set [1] (setting [5]) were 7.46 h and 13.6 h, respectively. Also, the bioavailability in data set [1] came out at 109%. In data set [1] (po (gavage)), the Tmax turned out to be 1 h. Besides, the IC50 on Axl (h) was 9 nM.
As to `Nc1nccc(Oc2cnc(NC(=O)c3nn(C4CC4)cc(-c4ccc(F)cc4)c3=O)nc2)c1Cl` [Compound 18, N-(5-((2-amino-3-chloropyridin-4-yl)oxy)pyrimidin-2-yl)-5-(4-fluorophenyl)-1-cyclopropyl-4-oxo-1,4-dihydropyridazine-3-carboxamide], the AUC(0-t) amounted to 3730 ng·h/mL in data set [1] (setting [2]) and 1090 ng·h/mL in data set [1] (setting [4]). The clearance in data set [1] (iv) was 4.83 mL/min/kg. Also, the Vd in data set [1] (iv) was 0.65 L/kg. Also, the half-life in data set [1] (setting [3]) was 1.54 h; in data set [1] (setting [5]), 2 h. In data set [1], the bioavailability amounted to 29.7%. Besides, the Tmax in data set [1] (po (gavage)) came out at 1 h. At Axl (h), the IC50 is 8 nM.
In the case of `Nc1nccc(Oc2ccc(NC(=O)c3nn(C4CC4)cc(-c4ccc(F)cc4)c3=O)cn2)c1Cl` [Compound 19, N-(6-((2-amino-3-chloropyridin-4-yl)oxy)pyridin-3-yl)-1-cyclopropyl-5-(4-fluorophenyl)-4-oxo-1,4-dihydropyridazine-3-carboxamide], the IC50 at Axl (h) was determined as 12 nM.
Still for that read-out and setting: the result for `Cn1cc(-c2ccc(F)cc2)c(=O)c(C(=O)Nc2ccc(Oc3ccnc(N)c3Cl)cn2)n1` [Compound 33, N-(5-((2-amino-3-chloropyridin-4-yl)oxy)pyridin-2-yl)-5-(4-fluorophenyl)-1-methyl-4-oxo-1,4-dihydropyridazine-3-carboxamide] reads 12 nM.
For `C=CCn1cc(-c2ccc(F)cc2)c(=O)c(C(=O)Nc2ccc(Oc3ccnc(N)c3Cl)cn2)n1` [Compound 35, 1-allyl-N-(5-((2-amino-3-chloropyridin-4-yl)oxy)pyridin-2-yl)-5-(4-fluorophenyl)-4-oxo-1,4-dihydropyridazine-3-carboxamide], the values for the AUC(0-t) in data set [1] (setting [2]) and in data set [1] (setting [4]) were 4120 ng·h/mL and 2200 ng·h/mL, respectively. In addition, in data set [1] (iv), the clearance was 3.83 mL/min/kg. Also, the Vd in data set [1] (iv) turned out to be 3.16 L/kg. The values for the half-life in data set [1] (setting [3]) and in data set [1] (setting [5]) were 9.32 h and 4.01 h, respectively. In data set [1], the bioavailability was 50.7%. Further, in data set [1] (po (gavage)), the Tmax was 1 h. The IC50 on Axl (h) was found to be 4 nM.
Turning to `C=CCn1cc(-c2ccc(F)cc2)c(=O)c(C(=O)Nc2ccc(Oc3ccnc(N)c3Cl)nc2)n1` [Compound 39, 1-allyl-N-(6-((2-amino-3-chloropyridin-4-yl)oxy)pyridin-3-yl)-5-(4-fluorophenyl)-4-oxo-1,4-dihydropyridazine-3-carboxamide], the IC50 on Axl (h) was determined as 12 nM.
